Test results as given in patent US20160024414A1, “IONIC LIQUIDS AS L[…] BASE STOCKS, COBASE STOCKS AND MULTI[…]” ([…] AND ENGINEERING COMPANY, priority 2012, published 2016).

How the values were obtained:
[1] = Kinematic viscosity (ASTM D-445); format: physicochemical
Experimental: The kinematic viscosity (Kv) of the ionic liquid products of Examples 2-5, 7 and 8 was measured using ASTM standards D-445 and reported at temperatures of 100° C. (Kv at 100° C.) or 40° C. (Kv at 40° C.). The viscosity index (VI) was measured according to ASTM standard D-2270 using the measured kinematic viscosities for each product.

1-butyl-3-hexylimidazolium bis(2-ethylhexyl) phosphate [Example 7]
solubility in AN (alkylated naphthalene) (solvent: AN (alkylated naphthalene)): 5%

tetradecylammonium bis(2-ethylhexyl) phosphate [Example 4]
Kv100 (kinematic viscosity at 100° C.) [1]: > 150 cSt

dihexadecyldimethylammonium bis(2-ethylhexyl) phosphate [Example 8]
solubility in PAO4 (in words) (solvent: PAO4): soluble
